Key:
[1] = Multiple Marker Experiment 1: saliva samples, marker concentration by LC-MS/MS; conditions: human, in vivo;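 further: mean across four subjects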
Text: (§1) All other markers were obtained from commercial sources. Urine and saliva were collected prior to each day's dosing of marker confirming the presence or absence of markers before the experiment started. […] The presence of all 7 markers at day 8 would confirm that all markers were ingested in the previous 7 day one week period.
(§2) Healthy volunteers with no recent exposure to the markers who were not currently taking prescribed medications, OTC medications or vitamins and supplements were chosen. Exposure to the markers more than one month before starting the experiment was allowed and no dietary restrictions were required. Subjects were given a 7 day blister pack with markers sequenced in the order above. Subjects verbally confirmed they understood the urine and saliva collection procedures. Instructions printed on the marker blister pack instructed subjects to collect urine and saliva each morning before they took the daily dose of marker. They were also instructed to take the daily dose of marker close to the same time each day.

[2] = Multiple Marker Experiment 1: urine samples, adherent with all markers, marker concentration by LC-MS/MS
Text: as §1, §2

[3] = Multiple Marker Experiment 2: urine samples, simulated non-adherence (one marker dose skipped per subject), LC-MS/MS; conditions: for Subject B, Urine Results / Subject C, Urine Results: collected before that day's dose; for Subject B, Urine Results / Subject C, Urine Results / concentration at 8 day: other markers dosed once; for concentration at 8 day: Urine Results, Day 8 sample
[4] = Day 1 sample, collected before that day's dose, Experiment #1, adherent with all markers, each marker dosed once
[5] = Day 2 sample, collected before that day's dose, Experiment #1, adherent with all markers, each marker dosed once
[6] = Day 3 sample, collected before that day's dose, Experiment #1, adherent with all markers, each marker dosed once
[7] = Day 4 sample, collected before that day's dose, Experiment #1, adherent with all markers, each marker dosed once
[8] = Day 5 sample, collected before that day's dose, Experiment #1, adherent with all markers, each marker dosed once
[9] = Day 6 sample, collected before that day's dose, Experiment #1, adherent with all markers, each marker dosed once
[10] = Day 7 sample, collected before that day's dose, Experiment #1, adherent with all markers, each marker dosed once
[11] = Day 8 sample, Experiment #1, adherent with all markers, each marker dosed once
[12] = human, in vivo, Average of Urine Samples
[13] = human, in vivo, Subject A, Urine Results
[14] = human, in vivo, Subject B, Urine Results

COc1ccc2c(c1)[C@]13CCCC[C@@H]1[C@H](C2)N(C)CC3 [DXM, Dextromethorphan]
concentration at 1 day [1]: 0 ng/mL
concentration at 2 day [1]: 0 ng/mL
concentration at 3 day [1]: 0 ng/mL
concentration at 4 day [1]: 8.4 ng/mL
concentration at 5 day [1]: 1.52 ng/mL
concentration at 6 day [1]: 0.501 ng/mL
concentration at 7 day [1]: 0.439 ng/mL
concentration at 8 day [1]: 0.197 ng/mL
Subject A, Urine Results [2, 4]: 0 ng/mL
Subject B, Urine Results [2, 4]: 0 ng/mL
Subject C, Urine Results [2, 4]: 0 ng/m
Subject D, Urine Results [2, 4]: 0 ng/m
Subject A, Urine Results [2, 5]: 0 ng/mL
Subject B, Urine Results [2, 5]: 0 ng/mL
Subject C, Urine Results [2, 5]: 0 ng/m
Subject D, Urine Results [2, 5]: 0 ng/m
Subject A, Urine Results [2, 6]: 0 ng/mL
Subject B, Urine Results [2, 6]: 0 ng/mL
Subject C, Urine Results [2, 6]: 0 ng/m
Subject D, Urine Results [2, 6]: 0 ng/m
Subject A, Urine Results [2, 7]: 146 ng/mL
Subject B, Urine Results [2, 7]: 358 ng/mL
Subject C, Urine Results [2, 7]: 187 ng/m
Subject D, Urine Results [2, 7]: 641 ng/m
Average of Urine Samples ([2]; Day 4 sample, collected before that day's dose, average of subjects A, B, C, D, Experiment 1, each marker dosed once): 333 ng/mL
Subject A, Urine Results [2, 8]: 11.7 ng/mL
Subject B, Urine Results [2, 8]: 31.4 ng/mL
Subject C, Urine Results [2, 8]: 15 ng/m
Subject D, Urine Results [2, 8]: 51.8 ng/m
Average of Urine Samples ([2]; Day 5 sample, collected before that day's dose, average of subjects A, B, C, D, Experiment 1, each marker dosed once): 27.475 ng/mL
Subject A, Urine Results [2, 9]: 3.6 ng/mL
Subject B, Urine Results [2, 9]: 17.8 ng/mL
Subject C, Urine Results [2, 9]: 4.84 ng/m
Subject D, Urine Results [2, 9]: 4.53 ng/m
Average of Urine Samples ([2]; Day 6 sample, collected before that day's dose, average of subjects A, B, C, D, Experiment 1, each marker dosed once): 7.6925 ng/mL
Subject A, Urine Results [2, 10]: 0.987 ng/mL
Subject B, Urine Results [2, 10]: 3.96 ng/mL
Subject C, Urine Results [2, 10]: 2.12 ng/m
Subject D, Urine Results [2, 10]: 2.61 ng/m
Average of Urine Samples ([2]; Day 7 sample, collected before that day's dose, average of subjects A, B, C, D, Experiment 1, each marker dosed once): 2.419 ng/mL
Subject C, Urine Results [2, 11]: 0.787 ng/m
Subject D, Urine Results [2, 11]: 1.26 ng/m
course of urine levels relative to dosing ([2]; Experiment 1, days 1-8): zero before dosing, peaked the day after dosing and slowly decreased over time
concentration at 1 day ([2]; human, in vivo): 0 ng/mL
concentration at 2 day ([2]; human, in vivo): 0 ng/mL
concentration at 3 day ([2]; human, in vivo): 0 ng/mL
concentration at 8 day ([2]; human, in vivo, Average of Urine Samples, Day 8 sample, average of subjects A, B, C, D, Experiment 1, each marker dosed once): 1.49 ng/mL
concentration at 8 day ([2]; human, in vivo, Subject A, Urine Results, Day 8 sample, Experiment #1, adherent with all markers, each marker dosed once): 0.341 ng/mL
concentration at 8 day ([2]; human, in vivo, Subject B, Urine Results, Day 8 sample, Experiment #1, adherent with all markers, each marker dosed once): 3.56 ng/mL
Subject B, Urine Results ([3]; Day 1 sample, Experiment #2, subject B skipped diphenhydramine on day 5): 0 ng/mL
Subject C, Urine Results ([3]; Day 1 sample, Experiment #2, subject C skipped Loperamide on day 2): 0 ng/mL
Subject B, Urine Results ([3]; Day 2 sample, Experiment #2, subject B skipped diphenhydramine on day 5): 0 ng/mL
Subject C, Urine Results ([3]; Day 2 sample, Experiment #2, subject C skipped Loperamide on day 2): 0 ng/mL
Subject B, Urine Results ([3]; Day 3 sample, Experiment #2, subject B skipped diphenhydramine on day 5): 0 ng/mL
Subject C, Urine Results ([3]; Day 3 sample, Experiment #2, subject C skipped Loperamide on day 2): 0 ng/mL
Subject B, Urine Results ([3]; Day 4 sample, Experiment #2, subject B skipped diphenhydramine on day 5): 2640 ng/mL
Subject C, Urine Results ([3]; Day 4 sample, Experiment #2, subject C skipped Loperamide on day 2): 377 ng/mL
Subject B, Urine Results ([3]; Day 5 sample, Experiment #2, subject B skipped diphenhydramine on day 5): 181 ng/mL
Subject C, Urine Results ([3]; Day 5 sample, Experiment #2, subject C skipped Loperamide on day 2): 40 ng/mL
Subject B, Urine Results ([3]; Day 6 sample, Experiment #2, subject B skipped diphenhydramine on day 5): 14.7 ng/mL
Subject C, Urine Results ([3]; Day 6 sample, Experiment #2, subject C skipped Loperamide on day 2): 1.35 ng/mL
Subject B, Urine Results ([3]; Day 7 sample, Experiment #2, subject B skipped diphenhydramine on day 5): 16.6 ng/mL
Subject C, Urine Results ([3]; Day 7 sample, Experiment #2, subject C skipped Loperamide on day 2): 1.11 ng/mL
course of urine levels relative to dosing ([3]; Experiment 2, days 1-8): zero before dosing, peaked the day after dosing and slowly decreased over time
concentration at 1 day ([3]; human, in vivo): 0 ng/mL
concentration at 2 day ([3]; human, in vivo): 0 ng/mL
concentration at 3 day ([3]; human, in vivo): 0 ng/mL
concentration at 8 day ([3]; human, in vivo, Subject B, Experiment #2, subject B skipped diphenhydramine on day 5): 2.63 ng/mL
concentration at 8 day ([3]; human, in vivo, Subject C, Experiment #2, subject C skipped Loperamide on day 2): 0.15 ng/mL

CNC(=C[N+](=O)[O-])NCCSCc1ccc(CN(C)C)o1 [Ranitidine]
concentration at 1 day [1]: 0 ng/mL
concentration at 2 day [1]: 16.8 ng/mL
concentration at 3 day [1]: 1.56 ng/mL
concentration at 4 day [1]: 0.562 ng/mL
concentration at 5 day [1]: 0.366 ng/mL
concentration at 6 day [1]: 0.176 ng/mL
concentration at 7 day [1]: 0.0757 ng/mL
concentration at 8 day [1]: 0.048 ng/mL
Subject C, Urine Results ([2]; human, in vivo, 1 day): 0 ng/m
Subject D, Urine Results ([2]; human, in vivo, 1 day): 0 ng/m
Subject C, Urine Results ([2]; human, in vivo, 2 day): 4930 ng/m
Subject D, Urine Results ([2]; human, in vivo, 2 day): 4910 ng/m
Subject C, Urine Results ([2]; human, in vivo, 3 day): 492 ng/m
Subject D, Urine Results ([2]; human, in vivo, 3 day): 300 ng/m
Subject C, Urine Results ([2]; human, in vivo, 4 day): 68.3 ng/m
Subject D, Urine Results ([2]; human, in vivo, 4 day): 51.5 ng/m
Subject C, Urine Results ([2]; human, in vivo, 5 day): 41.9 ng/m
Subject D, Urine Results ([2]; human, in vivo, 5 day): 39.4 ng/m
Subject C, Urine Results ([2]; human, in vivo, 6 day): 39.6 ng/m
Subject D, Urine Results ([2]; human, in vivo, 6 day): 22.6 ng/m
Subject C, Urine Results ([2]; human, in vivo, 7 day): 25.2 ng/m
Subject D, Urine Results ([2]; human, in vivo, 7 day): 14 ng/m
Subject C, Urine Results ([2]; human, in vivo, 8 day): 23.5 ng/m
Subject D, Urine Results ([2]; human, in vivo, 8 day): 12.1 ng/m
concentration at 1 day [2, 12]: 0 ng/mL
concentration at 2 day [2, 12]: 3720 ng/mL
concentration at 3 day [2, 12]: 351 ng/mL
concentration at 4 day [2, 12]: 56.5 ng/mL
concentration at 5 day [2, 12]: 40.7 ng/mL
concentration at 6 day [2, 12]: 34.3 ng/mL
concentration at 7 day [2, 12]: 13.9 ng/mL
concentration at 8 day [2, 12]: 10.4 ng/mL
concentration at 1 day [2, 13]: 0 ng/mL
concentration at 2 day [2, 13]: 801 ng/mL
concentration at 3 day [2, 13]: 156 ng/mL
concentration at 4 day [2, 13]: 63.4 ng/mL
concentration at 5 day [2, 13]: 61.8 ng/mL
concentration at 6 day [2, 13]: 58.5 ng/mL
concentration at 7 day [2, 13]: 11.2 ng/mL
concentration at 8 day [2, 13]: 1.16 ng/mL
concentration at 1 day [2, 14]: 0 ng/mL
concentration at 3 day [2, 14]: 456 ng/mL

Cc1cc2nc3c(=O)[nH]c(=O)nc-3n(C[C@H](O)[C@H](O)[C@H](O)CO)c2cc1C [Riboflavin]
concentration at 1 day [1]: 85.5 ng/mL
concentration at 2 day [1]: 92 ng/mL
concentration at 3 day [1]: 58.2 ng/mL
concentration at 4 day [1]: 45.5 ng/mL
concentration at 5 day [1]: 37.3 ng/mL
concentration at 6 day [1]: 85.5 ng/mL
concentration at 7 day [1]: 40.8 ng/mL
concentration at 8 day [1]: 43.1 ng/mL
Subject C, Urine Results ([2]; human, in vivo, 1 day): 1210 ng/m
Subject D, Urine Results ([2]; human, in vivo, 1 day): 819 ng/m
Subject C, Urine Results ([2]; human, in vivo, 2 day): 4940 ng/m
Subject D, Urine Results ([2]; human, in vivo, 2 day): 1290 ng/m
Subject C, Urine Results ([2]; human, in vivo, 3 day): 3150 ng/m
Subject D, Urine Results ([2]; human, in vivo, 3 day): 5190 ng/m
Subject C, Urine Results ([2]; human, in vivo, 4 day): 3150 ng/m
Subject D, Urine Results ([2]; human, in vivo, 4 day): 4330 ng/m
Subject C, Urine Results ([2]; human, in vivo, 5 day): 1230 ng/m
Subject D, Urine Results ([2]; human, in vivo, 5 day): 1730 ng/m
Subject C, Urine Results ([2]; human, in vivo, 6 day): 1680 ng/m
Subject D, Urine Results ([2]; human, in vivo, 6 day): 2120 ng/m
Subject C, Urine Results ([2]; human, in vivo, 7 day): 4450 ng/m
Subject D, Urine Results ([2]; human, in vivo, 7 day): 3200 ng/m
Subject C, Urine Results ([2]; human, in vivo, 8 day): 9920 ng/m
Subject D, Urine Results ([2]; human, in vivo, 8 day): 3310 ng/m
concentration at 1 day [2, 12]: 2240 ng/mL
concentration at 2 day [2, 12]: 2490 ng/mL
concentration at 3 day [2, 12]: 2960 ng/mL
concentration at 4 day [2, 12]: 5130 ng/mL
concentration at 5 day [2, 12]: 2110 ng/mL
concentration at 6 day [2, 12]: 2270 ng/mL
concentration at 7 day [2, 12]: 3100 ng/mL
concentration at 8 day [2, 12]: 5710 ng/mL
concentration at 3 day [2, 14]: 3040 ng/mL

— US10890591B2, “Methods and dose packs for monitoring medication adherence” (Synapse Biosciences, LLC, priority 2016, dated 2021)
